Source: patent US11524940B1, “Inhibitors of cysteine proteases and methods of use thereof” (priority 2020, dated 2022)

What follows are compounds tested against 229E Mpro (Human coronavirus 229E (HCoV-229E), UniProt P0C6X1) (assay: 229E Mpro activity). Settings: 229E Mpro EC50.
Format: biochemical
Description: Compounds are assayed using standard methods to assess compound activity and IC50. […] The assay buffer contains 20 mM of Tris-HCl (pH 7.3), 100 mM of NaCl, 1 mM of EDTA, 5mM of TCEP and 0.1% BSA.

Chain of 229E Mpro (P0C6X1 2966-3267 limits assumed): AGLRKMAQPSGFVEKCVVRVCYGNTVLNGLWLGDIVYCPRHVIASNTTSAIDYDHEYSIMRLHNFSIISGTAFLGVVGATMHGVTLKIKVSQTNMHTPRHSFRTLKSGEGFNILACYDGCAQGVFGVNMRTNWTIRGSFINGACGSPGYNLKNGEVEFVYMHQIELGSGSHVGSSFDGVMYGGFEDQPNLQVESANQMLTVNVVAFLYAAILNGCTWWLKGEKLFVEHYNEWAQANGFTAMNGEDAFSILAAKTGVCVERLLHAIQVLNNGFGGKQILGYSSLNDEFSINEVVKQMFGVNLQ

SMILES	EC50
COc1cccc2[nH]c(C(=O)N3CC4(CC3C(=O)N[C@H](C#N)C[C@@H]3CCCNC3=O)CC(F)(F)C4)cc12 (single isomer, unassigned) [723 (Isomer 1)]	10 to 30 µM
COCCOCCOc1cccc2[nH]c(C(=O)NC(CC(C)(C)C)C(=O)NC(C#N)CC3CCCNC3=O)cc12 (single isomer, unassigned) [875 (Isomer 2)]	< 2 µM

Same assay, conditions: read-out: 229E Mpro EC50

SMILES	EC50
COc1cccc2[nH]c(C(=O)N[C@@H](CC(C)C)C(=O)NC(C#N)Cc3cc(=O)[nH]c4ccccc34)cc12 (mixture of isomers) [Compound 237, N-[(1S)-1-[[1-cyano-2-(2-oxo-1H-quinolin-4-yl)ethyl]carbamoyl]-3-methyl-butyl]-4-methoxy-1H-indole-2-carboxamide]	> 30 µM
COc1cccc2[nH]c(C(=O)N[C@@H](CC(C)C)C(=O)NC(C#N)Cc3cc[nH]n3)cc12 (mixture of isomers) [Compound 241, N-[(1S)-1-[[1-cyano-2-(1H-pyrazol-3-yl)ethyl]carbamoyl]-3-methyl-butyl]-4-methoxy-1H-indole-2-carboxamide]	> 30 µM
COc1cccc2[nH]c(C(=O)N[C@@H](CC(C)C)C(=O)NC(C#N)Cc3n[nH]c4ccccc34)cc12 (mixture of isomers) [Compound 245, N-[(1S)-1-[[1-cyano-2-(1H-indazol-3-yl)ethyl]carbamoyl]-3-methyl-butyl]-4-methoxy-1H-indole-2-carboxamide]	> 30 µM
COc1cccc2[nH]c(C(=O)N[C@@H](CC(C)C)C(=O)NC(C#N)CC3CC(=O)Nc4ccccc43)cc12 (mixture of isomers) [Compound 249, N-[(1S)-1-[[1-cyano-2-(2-oxo-3,4-dihydro-1H-quinolin-4-yl)ethyl]carbamoyl]-3-methyl-butyl]-4-methoxy-1H-indole-2-carboxamide]	> 30 µM
COc1cccc2[nH]c(C(=O)N[C@@H](CC3CC3)C(=O)NC(C#N)CN3CCNC3=O)cc12 (mixture of isomers) [Compound 493, N-[(1S)-2-[[1-cyano-2-(2-oxoimidazolidin-1-yl)ethyl]amino]-1-(cyclopropylmethyl)-2-oxo-ethyl]-4-methoxy-1H-indole-2-carboxamide]	> 30 µM
COc1cccc2[nH]c(C(=O)N[C@@H](CC(C)C)C(=O)N[C@@H](C[C@@H]3CCNC3=O)C(C#N)NC(C)(C)C)cc12 (single isomer, unassigned) [323 (Isomer 1)]	< 2 µM
COc1cccc2[nH]c(C(=O)N[C@@H](CC(C)C)C(=O)N[C@@H](C[C@@H]3CCNC3=O)C(C#N)NC(C)(C)C)cc12 (single isomer, unassigned) [323 (Isomer 2)]	< 2 µM
COc1cccc2[nH]c(C(=O)N[C@@H](CC(C)C)C(=O)N[C@@H](C[C@@H]3CCNC3=O)C(C#N)N3CCCC3)cc12 (single isomer, unassigned) [331 (Isomer 1)]	< 2 µM
COc1cccc2[nH]c(C(=O)N[C@@H](CC(C)C)C(=O)N[C@@H](C[C@@H]3CCNC3=O)C(C#N)N3CCCC3)cc12 (single isomer, unassigned) [331 (Isomer 2)]	< 2 µM
COc1cccc2[nH]c(C(=O)N3C[C@H](c4ccccc4)C[C@H]3C(=O)N[C@@H](C[C@@H]3CCNC3=O)C(O)C#N)cc12 (single isomer, unassigned) [345 (Isomer 1)]	< 2 µM
COc1cccc2[nH]c(C(=O)N3C[C@H](c4ccccc4)C[C@H]3C(=O)N[C@@H](C[C@@H]3CCNC3=O)C(O)C#N)cc12 (single isomer, unassigned) [345 (Isomer 2)]	< 2 µM
CC(C)C[C@H](NC(=O)CC(C)(O)c1ccc(Cl)cc1)C(=O)N[C@H](C#N)C[C@@H]1CCNC1=O (single isomer, unassigned) [365 (Isomer 1)]	2 to 10 µM
CC(C)C[C@H](NC(=O)CC(C)(O)c1ccc(Cl)cc1)C(=O)N[C@H](C#N)C[C@@H]1CCNC1=O (single isomer, unassigned) [365 (Isomer 2)]	2 to 10 µM
COc1cccc2[nH]c(C(=O)N3CC(C45CC(C4)C5)C[C@H]3C(=O)N[C@H](C#N)C[C@@H]3CCNC3=O)cc12 (single isomer, unassigned) [385 (Isomer 1)]	< 2 µM
COc1cccc2[nH]c(C(=O)N3CC(C45CC(C4)C5)C[C@H]3C(=O)N[C@H](C#N)C[C@@H]3CCNC3=O)cc12 (single isomer, unassigned) [385 (Isomer 2)]	< 2 µM
COc1cccc2[nH]c(C(=O)N3CC4(CCCCC4)CC3C(=O)N[C@H](C#N)C[C@@H]3CCNC3=O)cc12 (single isomer, unassigned) [389A (Isomer 1)]	< 2 µM
COc1cccc2[nH]c(C(=O)N3CC(C)(C)C[C@H]3C(=O)N[C@H](C#N)C[C@@H]3CCNC3=O)cc12 (single isomer, unassigned) [395 (Isomer 1)]	< 2 µM
COc1cccc2[nH]c(C(=O)N3CC(C)(C)C[C@H]3C(=O)N[C@H](C#N)C[C@@H]3CCNC3=O)cc12 (single isomer, unassigned) [395 (Isomer 2)]	< 2 µM
COc1cccc2[nH]c(C(=O)N3CC4(CCC4)CC3C(=O)N[C@H](C#N)C[C@@H]3CCNC3=O)cc12 (single isomer, unassigned) [399A (Isomer 1)]	< 2 µM
COc1cccc2[nH]c(C(=O)N3CC4(CCCC4)C[C@H]3C(=O)N[C@H](C#N)C[C@@H]3CCNC3=O)cc12 (single isomer, unassigned) [401 (Isomer 1)]	< 2 µM
COc1cccc2[nH]c(C(=O)N3CC4(CCCC4)C[C@H]3C(=O)N[C@H](C#N)C[C@@H]3CCNC3=O)cc12 (single isomer, unassigned) [401 (Isomer 2)]	2 to 10 µM
N#C[C@H](C[C@@H]1CCNC1=O)NC(=O)[C@@H](CC1CC1)n1cccc(NCC(F)(F)F)c1=O (single isomer, unassigned) [467 (Isomer 1)]	2 to 10 µM

SMILES	EC50
N#C[C@H](C[C@@H]1CCNC1=O)NC(=O)[C@@H](CC1CC1)n1cccc(NCC(F)(F)F)c1=O (single isomer, unassigned) [467 (Isomer 2)]	> 30 µM
CC(C)(C)OC(=O)N1CCCCC12CCN(C(CC1CC1)C(=O)N[C@H](C#N)C[C@@H]1CCNC1=O)C2=O (single isomer, unassigned) [473 (Isomer 2)]	> 30 µM
COc1cccc2[nH]c(C(=O)N[C@@H](CC3CC3)C(=O)N[C@@]3(C#N)C[C@H]4CC[C@@H]3[C@H]3C(=O)NC(=O)[C@@H]43)cc12 (single isomer, unassigned) [489 (Isomer 1)]	> 30 µM
COc1cccc2[nH]c(C(=O)N[C@@H](CC3CC3)C(=O)N[C@H](C#N)C[C@@H]3CCCNC3=O)cc12 (single isomer, unassigned) [491 (Isomer 1)]	< 2 µM
COc1cccc2[nH]c(C(=O)N[C@@H](CC3CC3)C(=O)N[C@@H](C#N)C[C@@H]3CCCNC3=O)cc12 (single isomer, unassigned) [491 (Isomer 2)]	> 30 µM
COc1cccc2[nH]c(C(=O)N[C@H](CC3CC3)C(=O)N[C@@H](C#N)C[C@@H]3CCCNC3=O)cc12 (single isomer, unassigned) [491 (Isomer 4)]	< 2 µM
N#C[C@]1(NC(=O)[C@H](CC2CC2)NC(=O)OCc2ccccc2)C[C@H]2CC[C@@H]1[C@H]1C(=O)NC(=O)[C@@H]21 (single isomer, unassigned) [495 (Isomer 1)]	> 30 µM
CC(C)(C)OC(=O)Nc1cccn([C@H](CC2CC2)C(=O)N[C@H](C#N)C[C@@H]2CCNC2=O)c1=O (single isomer, unassigned) [505 (Isomer 1)]	> 30 µM
CC(C)(C)OC(=O)Nc1cccn([C@@H](CC2CC2)C(=O)N[C@H](C#N)C[C@@H]2CCNC2=O)c1=O (single isomer, unassigned) [505 (Isomer 2)]	> 30 µM
COc1cccc2[nH]c(C(=O)N[C@@H](CC(C)C)C(=O)N[C@@H](CC3CCNC3=O)C(C#N)NCc3ccccc3)cc12 (single isomer, unassigned) [507 (Isomer 2.1)]	< 2 µM
CCNC(C#N)[C@H](C[C@@H]1CCNC1=O)NC(=O)[C@H](CC(C)C)NC(=O)c1cc2c(OC)cccc2[nH]1 (single isomer, unassigned) [511 (Isomer 1)]	< 2 µM
CCNC(C#N)[C@H](C[C@@H]1CCNC1=O)NC(=O)[C@H](CC(C)C)NC(=O)c1cc2c(OC)cccc2[nH]1 (single isomer, unassigned) [511 (Isomer 2)]	< 2 µM
Cc1ccn(C(CC2CC2)C(=O)N[C@H](C#N)C[C@@H]2CCNC2=O)c(=O)c1NC(=O)OC(C)(C)C (single isomer, unassigned) [591 (Isomer 2)]	> 30 µM
COc1cccc2[nH]c(C(=O)N3CC4(CCCCC4)CC3C(=O)N[C@H](C#N)C[C@@H]3CCCNC3=O)cc12 (single isomer, unassigned) [603a (Isomer 1)]	< 2 µM
COc1cccc2[nH]c(C(=O)N[C@@H](CC(C)C)C(=O)N[C@@H](C[C@@H]3CCNC3=O)C(C#N)NCC(=O)O)cc12 (single isomer, unassigned) [653 (Isomer 1)]	< 2 µM
COc1cccc2[nH]c(C(=O)N[C@@H](CC(C)C)C(=O)N[C@@H](C[C@@H]3CCNC3=O)C(C#N)NCC(=O)O)cc12 (single isomer, unassigned) [653 (Isomer 2)]	< 2 µM
COc1cccc2[nH]c(C(=O)N3CC4(CCC4)CC3C(=O)N[C@H](C#N)C[C@@H]3CCCNC3=O)cc12 (single isomer, unassigned) [719 (Isomer 2)]	< 2 µM
N#C[C@H](C[C@@H]1CCCNC1=O)NC(=O)C1CC2(CCC2)CN1C(=O)c1cc2cccc(Cl)c2[nH]1 (single isomer, unassigned) [729 (Isomer 1)]	< 2 µM
N#C[C@H](C[C@@H]1CCCNC1=O)NC(=O)C1CC2(CCC2)CN1C(=O)c1cc2cccc(Cl)c2[nH]1 (single isomer, unassigned) [729 (Isomer 2)]	< 2 µM
COCCOCCOc1cccc2[nH]c(C(=O)NC(CC(C)(C)C)C(=O)NC(C#N)CC3CCCNC3=O)cc12 (single isomer, unassigned) [875 (Isomer 1)]	< 2 µM
COCCOCCOc1cccc2[nH]c(C(=O)NC(CC(C)(C)C)C(=O)NC(C#N)CC3CCCNC3=O)cc12 (single isomer, unassigned) [875 (Isomer 3)]	10 to 30 µM
N#C[C@H](C[C@@H]1CCNC1=O)NC(=O)C1CC2(CCCCC2)CN1C(=O)c1cc2ccc(Cl)cc2[nH]1 (single isomer, unassigned) [878 (Isomer 1)]	< 2 µM
